Reference: patent publication US8163960B2, “Process for preparing and drying solid rasagiline base” (Teva Pharmaceutical Industries, Ltd., priority 2008, dated 2012)
Values after ≈ are worked out from the molar mass of the structure shown. Where a name gives a salt, the structure may show the parent alone. Read-outs that look alike come from different tables or passages of the source. Blank lines part the entries; values can stand above or below the molecule they belong to.

Key:
[1] = Description: Approximately four (4) grams of rasagiline base was introduced into the sublimation reservoir of a standard Sigma-Aldrich glass sublimation apparatus, (Cat. No. Z221171-1EA) with internal diameter of 3 cm. The apparatus was equipped with vacuum pump, vacuumeter and circulating ice-water bath for cooling of the apparatus' sublimation head. The apparatus was then closed and circulation of coolant at 0 to 1° C. was started. The vacuum was then built to a pressure (“P”) of 2-3 mbar and the reservoir was introduced into thermostatic water bath maintained at temperature (“T”) of 21° C.
The process was controlled by visual observation of the sublimed solid forming on the sublimation head. After sublimation completed the operation time was recorded, the apparatus was opened and the sublimed solid was removed from the head and weighed.
The mean sublimation rate was calculated as follows:
Mean Sublimation Rate Rs1: Rs1=m/M·t [gg^−1hr^−1]
Mean Sublimation Rate Rs2: Rs2=m/S·t [gm^−2hr^−1]
Mean Relative Sublimation Rate R: R=m·100/M·t [%/hr] m—mass of sublimed material, g M—mass of starting material, g t=sublimation time, hrs S=sublimation area (apparatus section area), m^2

[2] = for Description: wet with water, RT, protected from light
Description: Rasagiline Base wet with water produced in Example […] was stored at ambient temperature (RT) in polyethylene bag inside aluminium laminate bag protected from light. The solid was sampled, dried to constant weight under vacuum and analyzed. The sampling and analysis were performed at time zero, than after 2 weeks and 4 weeks from zero time.

[3] = alcohols, acetone, ethyl acetate, toluene, diethyl ether, dioxane, hexane and n-heptane
[4] = low levels of volatiles by KF and TGA
[5] = 48 hrs in air; 7-8° C. or ambient temperature
Description: Two batches of Rasagiline base were prepared in order to simulate the storage of Rasagiline base in ethanol solution at different temperatures.
17.0 g of Rasagiline base oil was dissolved in 17 g absolute ethanol. The resulting solution was introduced into refrigerator and stored at 7-8° C. for 48 hrs. The ethanol solution was sampled (sample 1).
The reactor was cooled (Tj=11° C.) and 8 g of water was introduced at stirring. Then the solution was seeded with solid Rasagiline base and crystallization was observed. The batch was stirred for 15 min at 11-12° C. and then 33.8 g of water was added. The resulting suspension was cooled to 4° C. and stirred at 1-4° C. for 30 min. The solid was filtered and washed twice with 17 ml water. Wet solid product (17.6 g) was dried under vacuum.
17.0 g of Rasagiline base oil was dissolved in 17 g absolute ethanol. The resulting solution was stored at ambient temperature (20-28° C.) for 48 hrs. The ethanol solution was sampled (sample 1).
The reactor was cooled (Tj=11° C.) and 8 g of water was introduced at stirring. Then the solution was seeded with solid Rasagiline base and crystallization was observed. The batch was stirred for 20 min at 11-12° C. and then 33.8 g water was added. The resulting suspension was cooled to 4° C. and stirred at 1-4° C. for 30 min. The batch was filtered and washed twice with 17 ml water. […]

physchem = conditions: 25 °C
[6] = Stability test for dried Rasagiline Tartrate Pure; assay type: physicochemical; conditions: for Chromatographic purity by HPLC: 1-Aminoindan / Chromatographic purity by HPLC: Any other / Description / ID by HPLC / L.O.D. / S-isomer by HPLC: RT, polyethylene bag
Description: A batch of dry Rasagiline Tartrate Pure produced in Example ?? was stored at ambient temperature (RT) in polyethylene bag. The solid was sampled and analyzed at time zero, than after 2 weeks and 4 weeks from time zero.

[7] = Stability test for wet Rasagiline Tartrate Pure; assay type: physicochemical; conditions: for L.O.D.: samples dried prior to analysis; for Description: wet with isopropanol and water; for Description / Chromatographic purity by HPLC: 1-Aminoindan / Chromatographic purity by HPLC: Any other / ID by HPLC / S-isomer by HPLC: RT, polyethylene bag; for Chromatographic purity by HPLC: 1-Aminoindan / Chromatographic purity by HPLC: Any other / ID by HPLC / S-isomer by HPLC: wet
Excerpt: Rasagiline Tartrate Pure wet with isopropanol and water was stored at ambient temperature (RT) in polyethylene bag. The solid was sampled, dried to constant weight and analyzed.

[8] = Ex. 12, solid, 2-3 mbar, 21 °C, 8.0 hr
[9] = Ex. 13, solid, 2-3 mbar, 35 °C, 5.33 hr
[10] = Ex. 14, melt, 2-3 mbar, 60 °C, 4.0 hr
[11] = Ex. 15, solid, 20 mbar, 21 °C, 8.5 hr
[12] = Ex. 16, solid, 40 mbar, 21 °C, 8.5 hr
[13] = Ex. 17, solid, 40 mbar, 35 °C, 5.33 hr
[14] = Ex. 18, solid, 20 mbar, 35 °C, 5.33 hr
[15] = Ex. 19, melt, 40 mbar, 60 °C, 5.33 hr
[16] = Ex. 20, melt, 20 mbar, 60 °C, 5.33 hr
[17] = Ex. 21, oil, 20 mbar, 22 °C, 8.0 hr
[18] = Ex. 22, oil, 20 mbar, 35 °C, 5.33 hr
[19] = Ex. 23, oil, 2-3 mbar, 22 °C, 3.0 hr
[20] = Ex. 24, oil, 2-3 mbar, 60 °C, 1.3 hr

SMILES: C#CCN[C@@H]1CCc2ccccc21 [rasagiline base, R(+)-N-propargyl-1-aminoindan]
Mean relative sublimation rate R [1, 8]: 0.0312 %/hr | Mean sublimation rate Rs1 [1, 8]: 3.12e-05 g/g/h | Mean sublimation rate Rs2 [1, 8]: 1.333 g/hr/m^2 | Sublimed solid fraction [1, 8]: 0.25% | −log Rs1 [1, 8]: 4.5 | Mean relative sublimation rate R [1, 9]: 0.116 %/hr | Mean sublimation rate Rs1 [1, 9]: 0.00117 g/g/h | Mean sublimation rate Rs2 [1, 9]: 4.978 g/hr/m^2 | Sublimed solid fraction [1, 9]: 0.62% | −log Rs1 [1, 9]: 2.93 | Mean relative sublimation rate R [1, 10]: 5.6 %/hr | Mean sublimation rate Rs1 [1, 10]: 0.0562 g/g/h | Mean sublimation rate Rs2 [1, 10]: 236.19 g/hr/m^2 | Sublimed solid fraction [1, 10]: 22.4% | −log Rs1 [1, 10]: 1.25 | Mean relative sublimation rate R [1, 11]: 0.0 %/hr | Mean sublimation rate Rs1 [1, 11]: 0.0 g/g/h | Mean sublimation rate Rs2 [1, 11]: 0.0 g/hr/m^2 | Sublimed solid fraction [1, 11]: 0.0% | Mean relative sublimation rate R [1, 12]: 0.0 %/hr | Mean sublimation rate Rs1 [1, 12]: 0.0 g/g/h | Mean sublimation rate Rs2 [1, 12]: 0.0 g/hr/m^2 | Sublimed solid fraction [1, 12]: 0.0% | Mean relative sublimation rate R [1, 13]: 0.0375 %/hr | Mean sublimation rate Rs1 [1, 13]: 0.000375 g/g/h | Mean sublimation rate Rs2 [1, 13]: 1.593 g/hr/m^2 | Sublimed solid fraction [1, 13]: 0.20% | −log Rs1 [1, 13]: 3.42 | Mean relative sublimation rate R [1, 14]: 0.0506 %/hr | Mean sublimation rate Rs1 [1, 14]: 0.000515 g/g/h | Mean sublimation rate Rs2 [1, 14]: 2.192 g/hr/m^2 | Sublimed solid fraction [1, 14]: 0.27% | −log Rs1 [1, 14]: 3.29 | Mean relative sublimation rate R [1, 15]: 0.116 %/hr | Mean sublimation rate Rs1 [1, 15]: 0.00117 g/g/h | Mean sublimation rate Rs2 [1, 15]: 4.978 g/hr/m^2 | Sublimed solid fraction [1, 15]: 0.62% | −log Rs1 [1, 15]: 2.93 | Mean relative sublimation rate R [1, 16]: 0.769 %/hr | Mean sublimation rate Rs1 [1, 16]: 0.00764 g/g/h | Mean sublimation rate Rs2 [1, 16]: 32.26 g/hr/m^2 | Sublimed solid fraction [1, 16]: 4.1% | −log Rs1 [1, 16]: 2.12 | Assay by HPLC ([2]; 2 weeks): 100.5 % on dry basis | Enantiomeric purity by HPLC (S-isomer) ([2]; 2 weeks): L.T. 0.1% | ID by HPLC ([2]; 2 weeks): Conforms | IDD by HPLC: 1-Aminoindan ([2]; 2 weeks): L.T. 0.02% | IDD by HPLC: 1-Indanone ([2]; 2 weeks): L.T. 0.02% | IDD by HPLC: 3-PAIO ([2]; 2 weeks): L.T. 0.02% | IDD by HPLC: Any other ([2]; 2 weeks): L.T. 0.02% | IDD by HPLC: Total ([2]; 2 weeks): L.T. 0.02% | Water content by CKF ([2]; 2 weeks): 0.04% | Assay by HPLC ([2]; 4 weeks): 100.7 % on dry basis | Enantiomeric purity by HPLC (S-isomer) ([2]; 4 weeks): L.T. 0.1% | ID by HPLC ([2]; 4 weeks): Conforms | IDD by HPLC: 1-Aminoindan ([2]; 4 weeks): L.T. 0.02% | IDD by HPLC: 1-Indanone ([2]; 4 weeks): L.T. 0.02% | IDD by HPLC: 3-PAIO ([2]; 4 weeks): L.T. 0.02% | IDD by HPLC: Any other ([2]; 4 weeks): L.T. 0.02% | IDD by HPLC: Total ([2]; 4 weeks): L.T. 0.02% | Water content by CKF ([2]; 4 weeks): 0.03% | Assay by HPLC ([2]; Start (t = 0)): 100.1 % on dry basis | Enantiomeric purity by HPLC (S-isomer) ([2]; Start (t = 0)): L.T. 0.1% | ID by HPLC ([2]; Start (t = 0)): Conforms | IDD by HPLC: 1-Aminoindan ([2]; Start (t = 0)): L.T. 0.02% | IDD by HPLC: 1-Indanone ([2]; Start (t = 0)): L.T. 0.02% | IDD by HPLC: 3-PAIO ([2]; Start (t = 0)): L.T. 0.02% | IDD by HPLC: Any other ([2]; Start (t = 0)): L.T. 0.02% | IDD by HPLC: Total ([2]; Start (t = 0)): L.T. 0.02% | Water content by CKF ([2]; Start (t = 0)): 0.04% | Time limitation ([2]; Storage temperature +2-+8° C.): One month | Description ([2]; 2 weeks): White solid | Description ([2]; 4 weeks): White solid | Description ([2]; Start (t = 0)): White solid | solubility in organic solvents [3]: freely soluble | hygroscopicity [4]: not hygroscopic | effect of holding as ethanol solution on yield and quality of solid product [5]: do not affect the yield and quality of solid product | solubility (physchem; pH 11, water): 5.5 mg/mL (≈ 32.1 mM)

SMILES: C#CCN[C@@H]1CCc2ccccc21.C#CCN[C@@H]1CCc2ccccc21.O=C(O)C(O)C(O)C(=O)O [Dry GA-18062]
Chromatographic purity by HPLC: 1-Aminoindan ([6]; 2 weeks): L.T. 0.03% | Chromatographic purity by HPLC: Any other ([6]; 2 weeks): L.T. 0.03% | Description ([6]; 2 weeks): White | ID by HPLC ([6]; 2 weeks): Conforms | L.O.D. ([6]; 2 weeks): 0.16% | S-isomer by HPLC ([6]; 2 weeks): L.T. 0.3% | Chromatographic purity by HPLC: 1-Aminoindan ([6]; 4 weeks): L.T. 0.03% | Chromatographic purity by HPLC: Any other ([6]; 4 weeks): L.T. 0.03% | Description ([6]; 4 weeks): White | ID by HPLC ([6]; 4 weeks): Conforms | L.O.D. ([6]; 4 weeks): 0.03% | S-isomer by HPLC ([6]; 4 weeks): L.T. 0.3% | Chromatographic purity by HPLC: 1-Aminoindan ([6]; Start (t = 0)): L.T. 0.03% | Chromatographic purity by HPLC: Any other ([6]; Start (t = 0)): L.T. 0.03% | Description ([6]; Start (t = 0)): White | ID by HPLC ([6]; Start (t = 0)): Conforms | L.O.D. ([6]; Start (t = 0)): 0.03% | S-isomer by HPLC ([6]; Start (t = 0)): L.T. 0.3% | Time limitation ([6]; Storage temperature R.T.): One month

SMILES: C#CCN[C@@H]1CCc2ccccc21 [rasagiline mesylate]
solubility (physchem; pH 3.3, water): 570 mg/mL | solubility (physchem; pH 6.7, water): 92 mg/mL

Continued, values first:

Mean relative sublimation rate R [1, 17]: 0.0 %/hr | Mean sublimation rate Rs1 [1, 17]: 0.0 g/g/h | Mean sublimation rate Rs2 [1, 17]: 0.0 g/hr/m^2 | Sublimed solid fraction [1, 17]: 0.0% | Mean relative sublimation rate R [1, 18]: 0.0 %/hr | Mean sublimation rate Rs1 [1, 18]: 0.0 g/g/h | Mean sublimation rate Rs2 [1, 18]: 0.0 g/hr/m^2 | Sublimed solid fraction [1, 18]: 0.0% | Mean relative sublimation rate R [1, 19]: 0.08 %/hr | Mean sublimation rate Rs2 [1, 19]: 3.537 g/hr/m^2 | Sublimed solid fraction [1, 19]: 0.25% | −log Rs1 [1, 19]: 3.08 | Mean sublimation rate Rs1 ([1]; Ex. 23, oil, 2-3 mbar, 22 °C, 3.0 hr, listed as racemic PAI): 0.000833 g/g/h | Mean relative sublimation rate R [1, 20]: 2.5 %/hr | Mean sublimation rate Rs2 [1, 20]: 101.16 g/hr/m^2 | Sublimed solid fraction [1, 20]: 3.25% | −log Rs1 [1, 20]: 1.60 | Mean sublimation rate Rs1 ([1]; Ex. 24, oil, 2-3 mbar, 60 °C, 1.3 hr, listed as racemic PAI): 0.025 g/g/h
SMILES: C#CCNC1CCc2ccccc21 (racemic) [Rac.PAI oil, N-propargyl-1-aminoindan, reference compound]

Time limitation ([7]; Storage temperature R.T.): One month | L.O.D. ([7]; 2 weeks): 0.05% | L.O.D. ([7]; 4 weeks): 0.04% | L.O.D. ([7]; Start (t = 0)): 0.01% | Description ([7]; 2 weeks): White | Description ([7]; 4 weeks): White | Description ([7]; Start (t = 0)): White | Chromatographic purity by HPLC: 1-Aminoindan ([7]; 2 weeks): L.T. 0.03% | Chromatographic purity by HPLC: Any other ([7]; 2 weeks): L.T. 0.03% | ID by HPLC ([7]; 2 weeks): Conforms | S-isomer by HPLC ([7]; 2 weeks): L.T. 0.3% | Chromatographic purity by HPLC: 1-Aminoindan ([7]; 4 weeks): L.T. 0.03% | Chromatographic purity by HPLC: Any other ([7]; 4 weeks): L.T. 0.03% | ID by HPLC ([7]; 4 weeks): Conforms | S-isomer by HPLC ([7]; 4 weeks): L.T. 0.3% | Chromatographic purity by HPLC: 1-Aminoindan ([7]; Start (t = 0)): L.T. 0.03% | Chromatographic purity by HPLC: Any other ([7]; Start (t = 0)): L.T. 0.03% | ID by HPLC ([7]; Start (t = 0)): Conforms | S-isomer by HPLC ([7]; Start (t = 0)): L.T. 0.3%
SMILES: C#CCN[C@@H]1CCc2ccccc21.C#CCN[C@@H]1CCc2ccccc21.O=C(O)C(O)C(O)C(=O)O [Wet RB-2087]
